These compounds were tested on Aβ42 (human neuroglioma H4 cells expressing human wild type APP751) (assay: In vitro cell screening assay with sandwich ELISA quantification of Aβ42 peptide). Conditions: H4 cells stably expressing human wild type APP751; Pro293 chemically defined medium; compounds 0.003-10 μM; incubated overnight (16-18 h); supernatant Aβ42 by sandwich ELISA; normalized to DMSO and DAPT; read-out: Aβ42 H4 Prot Fre IC50.
Format: cell-based
Summary of the method: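 H4 neuroglioma cells stably expressing human wild-type APP751 were treated in Pro293 medium with compounds (0.003-10 μM, 0.33% DMSO) for 16-18 h at 37° C. Secreted Aβ42 measured by sandwich ELISA (C-terminal capture, 4G8-HRP detection, TMB, 450 nm). IC50 by variable-slope sigmoidal regression on percent of DMSO control.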
`COc1cc(Nc2ncc3c(n2)N(C)C(c2cc(F)c(F)c(F)c2)CO3)ccc1-c1ccnc(C)c1` (single isomer, unassigned; (-)) [Example 39B] was tested, and the IC50 was 984 nM.
Compound `COc1cc(Nc2ncc3c(n2)N(C)C(c2cc(F)c(F)c(F)c2)CO3)ccc1-n1cnc(C)c1` (single isomer, unassigned; (-)) [Example 40A] has an IC50 of 279 nM.
`Cc1cc(-c2ccc(Nc3ncc4c(n3)N(C)C(c3cc(F)cc(F)c3)CO4)cc2F)ccn1` (single isomer, unassigned; (-)) [Example 41B] showed an IC50 of 1260 nM.
`COc1cc(Nc2ncc3c(n2)N(C)C(c2cc(F)cc(F)c2)CO3)ccc1-c1ccnc(C)c1` (single isomer, unassigned; (-)) [Example 42B] showed an IC50 of 801 nM.
With `Cc1cn(-c2ccc(Nc3ncc4c(n3)N(C)C(c3ccccc3C)CO4)cc2)cn1` (single isomer, unassigned; (-)) [Example 43B] the IC50 was greater than 300 nM.
In the case of `COc1cc(Nc2ncc3c(n2)N(C)C(Cc2ccccc2)CO3)ccc1-n1cnc(C)c1` (single isomer, unassigned; (-)) [Example 47B], the IC50 is reported as 65 nM.
For `COc1cc(Nc2ncc3c(n2)N(C)C(c2ccc(F)cc2F)CO3)ccc1-n1cnc(C)c1` (single isomer, unassigned; (-)) [Example 48A], the IC50 was 328 nM.
Compound `COc1cc(Nc2ncc3c(n2)N(C)C(c2ccc(F)cc2)CO3)ccc1-n1cnc(C)c1` (single isomer, unassigned; (-)) [Example 49A] has an IC50 of 191 nM.
`COc1cc(Nc2ncc3c(n2)N(C)C(c2ccccc2Cl)CO3)ccc1-n1cnc(C)c1` (single isomer, unassigned; (-)) [Example 51A] was tested, and the IC50 was 28 nM.
`COc1cc(Nc2ncc3c(n2)N(C)C(c2ccccc2C(F)(F)F)CO3)ccc1-n1cnc(C)c1` (single isomer, unassigned; (-)) [Example 55A] was tested, and the IC50 was 102 nM.
In the case of `Cc1cc(-c2ccc(Nc3ncc4c(n3)N(C)C(c3ccc(F)cc3)CO4)cc2F)ccn1` (single isomer, unassigned; (-)) [Example 56B], the IC50 is reported as 3460 nM.
For `Cc1cc(-c2ccc(Nc3ncc4c(n3)N(C)C(Cc3ccccc3)CO4)cc2F)ccn1` (single isomer, unassigned; (-)) [Example 57B], the IC50 was 880 nM.
For `Cc1cn(-c2ccc(Nc3ncc4c(n3)N(C)C(c3ccc(F)cc3)CO4)cc2F)cn1` (single isomer, unassigned; (-)) [Example 58B], the IC50 was 1950 nM.
`Cc1cn(-c2ccc(Nc3ncc4c(n3)N(C)C(Cc3ccccc3)CO4)cc2F)cn1` (single isomer, unassigned; (-)) [Example 59B] showed an IC50 of 452 nM.
Compound `COc1cc(Nc2ncc3c(n2)N(C)C(c2ccccc2OC(F)(F)F)CO3)ccc1-n1cnc(C)c1` (single isomer, unassigned; (-)) [Example 60A] has an IC50 of 92 nM.
For `COc1cc(Nc2ncc3c(n2)N(C)C(c2ccc(F)cc2)CO3)ccc1-c1ccnc(C)c1` (single isomer, unassigned; (-)) [Example 61A], the IC50 was 1010 nM.
Work on `COc1cc(Nc2ncc3c(n2)N(C)C(c2ccccc2OC(F)(F)F)CO3)ccc1-c1ccnc(C)c1` (single isomer, unassigned; (-)) [Example 62A] yielded an IC50 of 339 nM.
Work on `COc1cc(Nc2ncc3c(n2)N(C)C(c2ccc(F)cc2F)CO3)ccc1-c1ccnc(C)c1` (single isomer, unassigned; (-)) [Example 63A] yielded an IC50 of 543 nM.
`Cc1cn(-c2ccc(Nc3ncc4c(n3)N(C)C(c3ccccc3OC(F)(F)F)CO4)cc2F)cn1` (single isomer, unassigned; (-)) [Example 64B] gave an IC50 of 741 nM.
`Cc1cc(-c2ccc(Nc3ncc4c(n3)N(C)C(c3ccc(F)cc3F)CO4)cc2F)ccn1` (single isomer, unassigned; (-)) [Example 66B] gave an IC50 of 1100 nM.
`Cc1cn(-c2ccc(Nc3ncc4c(n3)N(C)C(c3ccccc3Cl)CO4)cc2F)cn1` (single isomer, unassigned; (-)) [Example 67B] showed an IC50 of 643 nM.
`COc1cc(Nc2ncc3c(n2)N(C)C(Cc2ccccc2)CO3)ccc1-c1ccnc(C)c1` (single isomer, unassigned; (-)) [Example 68B] gave an IC50 of 229 nM.
In the case of `Cc1cn(-c2ccc(Nc3ncc4c(n3)N(C)C(c3ccc(F)cc3F)CO4)cc2F)cn1` (single isomer, unassigned; (-)) [Example 69B], the IC50 is reported as greater than 3000 nM.
In the case of `COc1cc(Nc2ncc3c(n2)N(C)C(c2ccccc2C(F)(F)F)CO3)ccc1-c1ccnc(C)c1` (single isomer, unassigned; (-)) [Example 70A], the IC50 is reported as 339 nM.
With `Cc1cn(-c2ccc(Nc3ncc4c(n3)N(C)C(c3ccccc3C(F)(F)F)CO4)cc2F)cn1` (single isomer, unassigned; (-)) [Example 84B] the IC50 was 421 nM.
`COc1cc(Nc2ncc3c(n2)N(C)C(c2ccccc2Cl)CO3)ccc1-c1ccnc(C)c1` (single isomer, unassigned; (-)) [Example 85A] was tested, and the IC50 was 292 nM.
`COc1cc(Nc2ncc3c(n2)N(C)C(c2cc(C(F)(F)F)ccc2Cl)CO3)ccc1-n1cnc(C)c1` (single isomer, unassigned; (-)) [Example 88B] gave an IC50 of 286 nM.
Compound `COc1cc(Nc2ncc3c(n2)N(C)C(c2ccc(F)cc2Cl)CO3)ccc1-n1cnc(C)c1` (single isomer, unassigned; (-)) [Example 93A] has an IC50 of 189 nM.
In the case of `COc1cc(Nc2ncc3c(n2)N(C)C(c2ccc(F)cc2C(F)(F)F)CO3)ccc1-n1cnc(C)c1` (single isomer, unassigned; (-)) [Example 94A], the IC50 is reported as 78 nM.
With `COc1cc(Nc2ncc3c(n2)N(C)C(c2ccc(Cl)cc2Cl)CO3)ccc1-n1cnc(C)c1` (single isomer, unassigned; (-)) [Example 95A] the IC50 was 116 nM.
Compound `Cc1cn(-c2ccc(Nc3ncc4c(n3)N(C)C(c3ccc(Cl)cc3Cl)CO4)cc2F)cn1` (single isomer, unassigned; (-)) [Example 96B] has an IC50 of 879 nM.
`COc1cc(Nc2ncc3c(n2)N(C)C(c2cc(F)c(F)cc2F)CO3)ccc1-n1cnc(C)c1` (single isomer, unassigned; (-)) [Example 97A] was tested, and the IC50 was 244 nM.
Work on `Cc1cn(-c2ccc(Nc3ncc4c(n3)N(C)C(c3cc(F)c(F)cc3F)CO4)cc2F)cn1` (single isomer, unassigned; (-)) [Example 98B] yielded an IC50 of 2100 nM.
`Cc1cn(-c2ccc(Nc3ncc4c(n3)N(C)C(c3ccc(F)cc3C(F)(F)F)CO4)cc2F)cn1` (single isomer, unassigned; (-)) [Example 99B] showed an IC50 of 1040 nM.
`Cc1cn(-c2ccc(Nc3ncc4c(n3)N(C)C(c3cc(Cl)ccc3C(F)(F)F)CO4)cc2F)cn1` (single isomer, unassigned; (-)) [Example 100B] showed an IC50 of 588 nM.
With `Cc1cn(-c2ccc(Nc3ncc4c(n3)N(C)C(c3ccc(F)cc3Cl)CO4)cc2F)cn1` (single isomer, unassigned; (-)) [Example 101B] the IC50 was 685 nM.
`Cc1cc(-c2ccc(Nc3ncc4c(n3)N(C)C(c3ccc(F)cc3Cl)CO4)cc2F)ccn1` (single isomer, unassigned; (-)) [Example 102B] gave an IC50 of 1350 nM.
`COc1cc(Nc2ncc3c(n2)N(C)C(c2cc(F)c(F)cc2Cl)CO3)ccc1-n1cnc(C)c1` (single isomer, unassigned; (-)) [Example 103B] was tested, and the IC50 was 219 nM.
`Cc1cn(-c2ccc(Nc3ncc4c(n3)N(C)C(c3cc(F)ccc3C(F)(F)F)CO4)cc2F)cn1` (single isomer, unassigned; (-)) [Example 104A] was tested, and the IC50 was 526 nM.
Work on `COc1cc(Nc2ncc3c(n2)N(C)C(c2cc(F)ccc2C(F)(F)F)CO3)ccc1-n1cnc(C)c1` (single isomer, unassigned; (-)) [Example 105A] yielded an IC50 of 88 nM.
Work on `Cc1cn(-c2ccc(Nc3ncc4c(n3)N(C)C(c3ccc(Cl)cc3C(F)(F)F)CO4)cc2F)cn1` (single isomer, unassigned; (-)) [Example 106B] yielded an IC50 of 1020 nM.
In the case of `COc1cc(Nc2ncc3c(n2)N(C)C(c2ccc(Cl)cc2C(F)(F)F)CO3)ccc1-c1ccnc(C)c1` (single isomer, unassigned; (-)) [Example 107A], the IC50 is reported as 422 nM.
`Cc1cn(-c2ccc(Nc3ncc4c(n3)N(C)C(C)CO4)cc2F)cn1` (single isomer, unassigned; (-)) [Example 108A] was tested, and the IC50 was 567 nM.
With `Cc1cn(-c2ccc(Nc3ncc4c(n3)N(C)C(C3CCOCC3)CO4)cc2F)cn1` (single isomer, unassigned; (-)) [Example 109B] the IC50 was greater than 3000 nM.
With `COc1cc(Nc2ncc3c(n2)N(C)C(C)CO3)ccc1-c1ccnc(C)c1` (single isomer, unassigned; (-)) [Example 110A] the IC50 was 199 nM.
Compound `COc1cc(Nc2ncc3c(n2)N(C)C(c2ccc(Cl)cc2C(F)(F)F)CO3)ccc1-n1cnc(C)c1` (single isomer, unassigned; (-)) [Example 112A] has an IC50 of 231 nM.
Compound `COc1cc(Nc2ncc3c(n2)N(C)C(C2CCOCC2)CO3)ccc1-n1cnc(C)c1` (single isomer, unassigned; (-)) [Example 114A] has an IC50 of 494 nM.
`Cc1cn(-c2ccc(Nc3ncc4c(n3)N(C)C(c3cc(F)c(F)c(F)c3)CO4)cc2)cn1` (single isomer, unassigned; (-)) [Example 115A] was tested, and the IC50 was 2860 nM.
For `COc1cc(Nc2ncc3c(n2)N(C)C(C)CO3)ccc1-n1cnc(C)c1` (single isomer, unassigned; (-)) [Example 116A], the IC50 was 148 nM.
Work on `COc1cc(Nc2ncc3c(n2)N(C)C(c2ccc(F)cc2C)CO3)ccc1-n1cnc(C)c1` (single isomer, unassigned; (-)) [Example 117A] yielded an IC50 of 140 nM.
In the case of `Cc1cn(-c2ccc(Nc3ncc4c(n3)N(C)C(c3cc(F)c(F)c(F)c3)CO4)cc2F)cn1` (single isomer, unassigned; (-)) [Example 118B], the IC50 is reported as 1340 nM.
With `COc1cc(Nc2ncc3c(n2)N(C)C(c2cc(Cl)ccc2C(F)(F)F)CO3)ccc1-n1cnc(C)c1` (single isomer, unassigned; (-)) [Example 165B] the IC50 was 79 nM.
`COc1ccc(Cl)c(C2COc3cnc(Nc4ccc(-n5cnc(C)c5)c(OC)c4)nc3N2C)c1` (single isomer, unassigned; (-)) [Example 167B] gave an IC50 of 75 nM.

From US9771378B2 (Denali Therapeutics, Inc., priority 2014, dated 2017)
